The IC50 is the concentration that inhibits the measured activity by half. Read a high IC50 as a need for much substance. By GI50 is commonly meant the concentration giving 50% growth inhibition. What is called EC50 is the concentration needed to bring the measured effect to its halfway point.

Activity calls are given as the source filed them. The rule behind the calls is not given here.

For test [1], the target named is T1, Programmed cell death protein 1/Programmed cell death 1 ligand 1 (Homo sapiens, UniProt Q9NZQ7). Put plainly: Inhibition of PD1 (unknown origin)/PDL1 (unknown origin) protein-protein interaction by HTRF assay. The test is classed as protein-complex assay.
T1 sequence (Q15116 whole entry): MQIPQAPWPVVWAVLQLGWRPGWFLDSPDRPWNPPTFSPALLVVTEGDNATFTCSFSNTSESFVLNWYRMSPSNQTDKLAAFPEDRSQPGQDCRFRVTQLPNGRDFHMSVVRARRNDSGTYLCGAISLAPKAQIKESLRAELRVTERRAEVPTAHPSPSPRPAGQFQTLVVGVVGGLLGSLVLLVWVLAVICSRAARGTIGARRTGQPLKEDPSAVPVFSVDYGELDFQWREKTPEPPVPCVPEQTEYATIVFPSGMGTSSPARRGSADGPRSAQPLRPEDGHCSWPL
T1 sequence (Q9NZQ7 whole entry): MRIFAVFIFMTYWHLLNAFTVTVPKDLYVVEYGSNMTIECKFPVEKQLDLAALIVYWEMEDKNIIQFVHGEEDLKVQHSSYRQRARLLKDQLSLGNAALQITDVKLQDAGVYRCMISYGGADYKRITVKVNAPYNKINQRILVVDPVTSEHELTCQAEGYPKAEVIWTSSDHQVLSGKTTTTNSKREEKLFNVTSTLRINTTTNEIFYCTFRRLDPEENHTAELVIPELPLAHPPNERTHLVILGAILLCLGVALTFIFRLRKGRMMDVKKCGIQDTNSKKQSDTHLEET
Test [2] is described as follows: Cytotoxicity against CHO cells expressing PD-Ll /TCR cocultured with human Jurkat cells expressing PD-1 measured after 24 hrs by Cell Titer-Glo based luminescent cell viability assay. The test is classed as functional. For orientation: In ATP-based viability assays light output follows the ATP content of the culture.
Test [3] deals with T1, Programmed cell death protein 1/Programmed cell death 1 ligand 1. Put plainly: Inhibition of PD-1/PD-L1 interaction in CHO cells expressing PD-Ll/TCR cocultured with human Jurkat cells expressing PD-1 assessed as activation of effector Jurkat T cells incubated for 6 hrs by luciferase reporter gene assay. The test is classed as cell-based.
Test [4] deals with T2, Programmed cell death protein 1/Programmed cell death 1 ligand 1 (Homo sapiens) (UniProt Q15116+Q9NZQ7). Put plainly: Inhibition of PD-1/PD-L1 interaction in CHO cells expressing PD-Ll/TCR cocultured with human Jurkat cells expressing PD-1 assessed as maximum relative luminescence intensity value incubated for 6 hrs by luciferase reporter gene assay. The test is classed as cell-based. (In general: Reporter assays use an easily measured gene product as a stand-in for the process of interest.)

Test [5] addresses T2, Programmed cell death protein 1/Programmed cell death 1 ligand 1 (Homo sapiens). Put plainly: Inhibition of PD-1/PD-L1 interaction in CHO cells expressing PD-Ll/TCR cocultured with human Jurkat cells expressing PD-1 assessed as maximum relative luminescence intensity value upto 10 uM incubated for 6 hrs by luciferase reporter gene assay. The test is classed as cell-based. The conditions noted are these: dose microM <=10, time 6.0 hrs.

Test [6] shares this target. Put plainly: Inhibition of PD-1/PD-L1 interaction in CHO cells expressing PD-Ll/TCR cocultured with human Jurkat cells expressing PD-1 assessed as maximum relative luminescence intensity value at > 3.3 uM incubated for 6 hrs by luciferase reporter gene assay. It is filed as cell-based. The settings on record: dose microM >3.3, time 6.0 hrs.

In test [1], `CC(=O)NCCNCc1cc(Cl)c(OCc2cccc(-c3cccc4c3CCN4CCN3CCC(O)CC3)c2C)cc1OCc1cccc(C#N)c1` came in with a half-inhibitory concentration (IC50) of 322 nM.
In turn, `CCN(CC)CCCN1CCc2c(-c3cccc(COc4cc(OCc5cccc(C#N)c5)c(CNCCNC(C)=O)cc4Cl)c3C)cccc21` had an IC50 in test [1] of 114 nM.
Still for that read-out and setting: the figure for `CC(=O)NCCNCc1cc(Cl)c(OCc2cccc(-c3cccc4c3CCN4CCCN3CCC(O)CC3)c2C)cc1OCC1CCCCC1` is 1130 nM.
Consider `CC(=O)NCCNCc1cc(Cl)c(OCc2cccc(-c3cccc4c3CCN4CCCN3CCC3)c2C)cc1OCc1cccc(C#N)c1`, for which, in test [1], the IC50 came out at 98 nM.
In turn, `CC(=O)NCCNCc1cc(Cl)c(OCc2cccc(-c3cccc4c3CCN4CCCN3CCC(F)C3)c2C)cc1OCc1cccc(C#N)c1` (stereo unspecified) showed an IC50 in test [1] of 202 nM.
Compound `CC(=O)NCCNCc1cc(Cl)c(OCc2cccc(-c3cccc4c3CCN4CCCN3CCC(O)CC3)c2C)cc1OCc1cncc(C#N)c1` had an IC50 in test [1] of 17 nM. In test [2], this compound had a GI50 of 16900 nM. Also, the EC50 in test [3] was 430 nM. The Activity result in test [4] is “Dose-Dependent Effect”. Besides, the RLU in test [5] was 1910.
For the compound `CC(=O)NCCNCc1cc(Cl)c(OCc2cccc(-c3cccc4c3CCN4CCCN3CCCC3)c2C)cc1OCc1cccc(C#N)c1`, half-maximal inhibition in test [1] (IC50) required 77 nM.
Still for that read-out and setting: the same measure for `Cc1c(COc2cc(OCc3cncc(C#N)c3)c(CNC(CO)CO)cc2Cl)cccc1-c1cccc2c1CCN2CCCN1CCC(O)CC1`: 38 nM; for `CC(=O)NCCNCc1cc(Cl)c(OCc2cccc(-c3cccc4c3CCN4CCCN3CCC(O)CC3)c2C)cc1OCc1ccccc1`: 446 nM; for `Cc1c(COc2cc(OCc3cncc(C#N)c3)c(CNCCO)cc2Cl)cccc1-c1cccc2c1CCN2CCCN1CCC(O)CC1`: 31 nM.
Still for that read-out and setting: the figure for `CCCN1CCc2c(-c3cccc(COc4cc(OCc5cccc(C#N)c5)c(CNCCNC(C)=O)cc4Cl)c3C)cccc21` is 1730 nM; for `CC(=O)NCCNCc1cc(Cl)c(OCc2cccc(-c3cccc4c3CCN4)c2C)cc1OCc1cccc(C#N)c1` it is 1360 nM.
Still for that read-out and setting: the same measure for `CC(=O)NCCNCc1cc(Cl)c(OCc2cccc(-c3cccc4c3CCN4CCCN3CCCCC3)c2C)cc1OCc1cccc(C#N)c1`: 197 nM; for `CC(=O)NCCNCc1cc(Cl)c(OCc2cccc(-c3cccc4c3CCN4CCCN3CCC(O)CC3)c2C)cc1OCc1cccnc1`: 79 nM; for `CCN1CCc2c(-c3cccc(COc4cc(OCc5cccc(C#N)c5)c(CNCCNC(C)=O)cc4Cl)c3C)cccc21`: 743 nM.
As for `CC(=O)NCCNCc1cc(Cl)c(OCc2cccc(-c3cccc4c3CCN4CCCN3CCC(F)CC3)c2C)cc1OCc1cccc(C#N)c1`, half-maximal inhibition in test [1] (IC50) was put at 878 nM.
On the same count and under the same terms, the same measure for `COCCCN1CCc2c(-c3cccc(COc4cc(OCc5cccc(C#N)c5)c(CNCCNC(C)=O)cc4Cl)c3C)cccc21`: 905 nM.
Regarding `CC(=O)NCCNCc1cc(Cl)c(OCc2cccc(-c3cccc4c3CCN4CCCN3CCC(O)C3)c2C)cc1OCc1cccc(C#N)c1` (stereo unspecified), in test [1], the concentration for half-maximal inhibition (IC50) was found to be 63 nM.
For `CC(=O)NCCNCc1cc(Cl)c(OCc2cccc(-c3ccc4c(c3)OCCO4)c2C)cc1OCc1cccc(C#N)c1`, the IC50 in test [1] is 40 nM. The same compound had a GI50 in test [2] of 6300 nM. Also, the EC50 in test [3] is over 3300 nM. In addition, the result in test [6] was inactive.
In test [1], `CC(=O)NCCNCc1cc(Cl)c(OCc2cccc(-c3cccc4c3CCN4CCCN3CCOCC3)c2C)cc1OCc1cccc(C#N)c1` came in with an IC50 of 185 nM. This counts as sub-micromolar.
In turn, `Cc1c(COc2cc(OCc3cncc(C#N)c3)c(CN[C@@H](CO)C(=O)O)cc2Cl)cccc1-c1cccc2c1CCN2CCCN1CCC(O)CC1` came in with an IC50 in test [1] of 12 nM. Moreover, the GI50 in test [2] is over 20000 nM. Moreover, the half-maximal effective concentration (EC50) in test [3] is 2900 nM. In addition, the Activity entry in test [4] was “Dose-Dependent Effect”. Besides, the RLU in test [5] came out at 1710.
`CC(=O)NCCNCc1cc(Cl)c(OCc2cccc(-c3cccc4c3CCN4CCCn3cccc3)c2C)cc1OCc1cccc(C#N)c1` yielded a half-inhibitory concentration (IC50) in test [1] of 2470 nM.
On the same count and under the same terms, the figure for `CC(=O)NCCNCc1cc(Cl)c(OCc2cccc(-c3cccc4c3CCN4CCCN3CCC(O)CC3)c2C)cc1OCc1cccc(C#N)c1` is 58 nM.
Same read-out and setting: the figure for `COC(=O)[C@H](CO)NCc1cc(Cl)c(OCc2cccc(-c3cccc4c3CCN4CCCN3CCC(O)CC3)c2C)cc1OCc1cncc(C#N)c1` is 41 nM; for `CC(=O)NCCNCc1cc(Cl)c(OCc2cccc(-c3cccc4c3CCN4C)c2C)cc1OCc1cccc(C#N)c1` it is 878 nM.

(Values after ChEMBL document CHEMBL4819002, “Design, synthesis, evaluation, and SAR of 4-phenylindoline derivatives, a novel class of small-molecule inhibitors of the programmed cell death-1/ programmed cell death-ligand 1 (PD-1/PD-L1) interaction” (Eur J Med Chem, 2021).)
